Drawing on patent publication US8785457B2 (Cellzome Limited, priority 2009, dated 2014), this text covers IC50 for 26 compounds.

Like-named read-outs stand apart in the source and are kept apart here.

One assay deals with T1, mTOR (Homo sapiens, UniProt P42345).
T1 construct: endogenous in cells; host or cells: Jurkat, clone E6-1 (ATCC TIB-152) cell lysate
The assay can be described thus: mTOR kinobeads assay (competitive binding in Jurkat cell lysate, immunodetection). To be noted: kinobeads assay. In short, it runs like this: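 IC50 derived from dose-response curves of mTOR captured on immobilized phenylmorpholin-chromen beads, detected by antibody dot blot with infrared fluorescence.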

The test system of assay [1] is S6RP serine-240/244 phosphorylation. The assay can be described thus: In vitro Phospho-S6 cellular assay (pS6RP S240/244) in HEK293T/17 cells. To be noted: Homo sapiens, 2 hours, read-out: pS6 IC50. Format: cell-based. In short, it runs like this: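 HEK293T/17 cells were seeded at 40,000 (pS6RP) or 80,000 (pAkt) cells/well in DMEM with 2% FCS. They were exposed to 8 compound concentrations (0.1% DMSO) for 2 h at 37 °C and then lysed. Phosphoprotein was quantified by MesoScale electrochemiluminescence sandwich immunoassay, and the sigmoidal variable-slope dose-response was fitted.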

Where [2] appears, read: Table 6, read-out: Inhibition values (IC50) mTOR.
Setting [3] is: Table 4, read-out: Inhibition values (IC50) mTor.

With `CCNC(=O)Nc1ccc(-c2nc3c(c(N4CCOC[C@@H]4C)n2)CN(C(=O)OCC)CC3)cc1` [Example 107, (S)-ethyl 2-(4-(3-ethylureido)phenyl)-4-(3-methylmorpholino)-7,8-dihydropyrido[4,3-d]pyrimidine-6(5H)-carboxylate], the results for the IC50 (on mTOR (setting [2]); in assay [1]) were 100 to 1000 nM and 159 nM, respectively.
In the same order, the values of `CCOC(=O)N1Cc2nc(-c3ccc(NC(=O)NC4CC4)c(F)c3)nc(N3CCOC[C@@H]3C)c2C1` [Example 105, (S)-ethyl 2-(4-(3-cyclopropylureido)-3-fluorophenyl)-4-(3-methylmorpholino)-5H-pyrrolo[3,4-d]pyrimidine-6(7H)-carboxylate] are 100 to 1000 nM and 414 nM.
Turning to `CCNC(=O)Nc1ccc(-c2nc3c(c(N4CCOC[C@@H]4C)n2)CCN(C(=O)Cc2cccnc2)C3)cc1` [Example 91, (S)-1-ethyl-3-(4-(4-(3-methylmorpholino)-7-(2-(pyridin-3-yl)acetyl)-5,6,7,8-tetrahydropyrido[3,4-d]pyrimidin-2-yl)phenyl)urea], the results for the IC50 (on mTOR (setting [2]); in assay [1]) were below 100 nM and 105 nM, respectively.
Turning to `CCNC(=O)Nc1ccc(-c2nc3c(c(N4CCOC[C@@H]4C)n2)CCN(C(=O)CO)C3)cc1` [Example 102, (S)-1-ethyl-3-(4-(7-(2-hydroxyacetyl)-4-(3-methylmorpholino)-5,6,7,8-tetrahydropyrido[3,4-d]pyrimidin-2-yl)phenyl)urea], the half-maximal inhibitory concentration (IC50) was below 100 nM at mTOR (setting [2]) and 258 nM in assay [1].
In the same order, the values of `CCOC(=O)N1Cc2nc(-c3ccc(NC(=O)NC4CC4)cc3F)nc(N3CCOC[C@@H]3C)c2C1` [Example 131, (S)-ethyl 2-(4-(3-cyclopropylureido)-2-fluorophenyl)-4-(3-methylmorpholino)-5H-pyrrolo[3,4-d]pyrimidine-6(7H)-carboxylate] are 100 to 1000 nM and 99 nM.
In the same order, the values of `C[C@H]1COCCN1c1nc(-c2ccc(NC(=O)NC3CC3)cc2)nc2c1CN(C(=O)C1CCOCC1)C2` [Example 129, (S)-1-cyclopropyl-3-(4-(4-(3-methylmorpholino)-6-(tetrahydro-2H-pyran-4-carbonyl)-6,7-dihydro-5H-pyrrolo[3,4-d]pyrimidin-2-yl)phenyl)urea] are below 100 nM and 336 nM.
In the same order, the values of `Cc1cc(NC(=O)Nc2ccc(-c3nc4c(c(N5CCOC[C@@H]5C)n3)CN(C)C4)cc2)no1` [Example 72, (S)-1-(4-(6-methyl-4-(3-methylmorpholino)-6,7-dihydro-5H-pyrrolo[3,4-d]pyrimidin-2-yl)phenyl)-3-(5-methylisoxazol-3-yl)urea] are 100 to 1000 nM and 129 nM.
Regarding `C[C@H]1COCCN1c1nc(-c2ccc(NC(=O)Nc3ccn(C)n3)cc2)nc2c1CN(C)C2` [Example 84, (S)-1-(1-methyl-1H-pyrazol-3-yl)-3-(4-(6-methyl-4-(3-methylmorpholino)-6,7-dihydro-5H-pyrrolo[3,4-d]pyrimidin-2-yl)phenyl)urea], the half-maximal inhibitory concentration (IC50) was 100 to 1000 nM at mTOR (setting [2]) and 165 nM in assay [1].
For the compound `CC(C)C(=O)N1CCc2c(nc(-c3ccc(NC(=O)NC4CC4)cc3)nc2N2CCOC[C@@H]2C)C1` [Example 61, (S)-1-cyclopropyl-3-(4-(7-isobutyryl-4-(3-methylmorpholino)-5,6,7,8-tetrahydropyrido[3,4-d]pyrimidin-2-yl)phenyl)urea], the values for the IC50 (on mTOR (setting [3]); on mTOR (setting [2]); in assay [1]) were below 100 nM, below 100 nM and 22 nM, respectively.
With `CCNC(=O)Nc1ccc(-c2nc3c(c(N4CCOC[C@@H]4C)n2)CN(CC(C)C)C3)cc1` [Example 66, (S)-1-ethyl-3-(4-(6-isobutyl-4-(3-methylmorpholino)-6,7-dihydro-5H-pyrrolo[3,4-d]pyrimidin-2-yl)phenyl)urea], the 50% inhibitory concentration (IC50) on mTOR (setting [2]) was below 100 nM; in assay [1] it was 74 nM.
In the same order, the values of `CCNC(=O)Nc1cc(F)c(-c2nc3c(c(N4CCOC[C@@H]4C)n2)CCN(C)C3)cc1F` [Example 108, (S)-1-(2,5-difluoro-4-(7-methyl-4-(3-methylmorpholino)-5,6,7,8-tetrahydropyrido[3,4-d]pyrimidin-2-yl)phenyl)-3-ethylurea] are 100 to 1000 nM and 935 nM.
For the compound `C[C@H]1COCCN1c1nc(-c2ccc(NC(=O)NC3CC3)cc2)nc2c1CN(CC(F)(F)F)C2` [Example 101, (S)-1-cyclopropyl-3-(4-(4-(3-methylmorpholino)-6-(2,2,2-trifluoroethyl)-6,7-dihydro-5H-pyrrolo[3,4-d]pyrimidin-2-yl)phenyl)urea], the 50% inhibitory concentration (IC50) was 100 to 1000 nM at mTOR (setting [2]) and 252 nM in assay [1].
In the same order, the values of `CCNC(=O)Nc1ccc(-c2nc3c(c(N4CCOC[C@@H]4C)n2)CN(CC(C)(C)C)C3)cc1` [Example 67, (S)-1-ethyl-3-(4-(4-(3-methylmorpholino)-6-neopentyl-6,7-dihydro-5H-pyrrolo[3,4-d]pyrimidin-2-yl)phenyl)urea] are 100 to 1000 nM and 143 nM.
As to `CCNC(=O)Nc1ccc(-c2nc3c(c(N4CCOC[C@@H]4C)n2)CCN(C(=O)OCC)C3)cc1` [Example 77, (S)-ethyl 2-(4-(3-ethylureido)phenyl)-4-(3-methylmorpholino)-5,6-dihydropyrido[3,4-d]pyrimidine-7(8H)-carboxylate], the IC50 at mTOR (setting [2]) is below 100 nM; in assay [1], 38 nM.
Turning to `CCNC(=O)Nc1ccc(-c2nc3c(c(N4CCOC[C@@H]4C)n2)CN(CC(F)(F)F)C3)cc1` [Example 68, (S)-1-ethyl-3-(4-(4-(3-methylmorpholino)-6-(2,2,2-trifluoroethyl)-6,7-dihydro-5H-pyrrolo[3,4-d]pyrimidin-2-yl)phenyl)urea], the IC50 at mTOR (setting [2]) was 100 to 1000 nM; in assay [1], 243 nM.
`CCNC(=O)Nc1ccc(-c2nc3c(c(N4CCOC[C@@H]4C)n2)CCN(C(=O)C(C)(C)C)C3)cc1` [Example 58, (S)-1-ethyl-3-(4-(4-(3-methylmorpholino)-7-pivaloyl-5,6,7,8-tetrahydropyrido[3,4-d]pyrimidin-2-yl)phenyl)urea]: the IC50 at mTOR (setting [3]) is below 100 nM; at mTOR (setting [2]), below 100 nM; in assay [1], 34 nM.
As to `CCNC(=O)Nc1ccc(-c2nc3c(c(N4CCOC[C@@H]4C)n2)CCN(C(=O)NCC)C3)cc1` [Example 87, (S)—N-ethyl-2-(4-(3-ethylureido)phenyl)-4-(3-methylmorpholino)-5,6-dihydropyrido[3,4-d]pyrimidine-7(8H)-carboxamide], the IC50 on mTOR (setting [2]) is below 100 nM; in assay [1], 108 nM.
On to `CCNC(=O)Nc1ccc(-c2nc3c(c(N4CCOC[C@@H]4C)n2)CN(C(=O)OCC)C3)cc1` [Example 90, (S)-ethyl 2-(4-(3-ethylureido)phenyl)-4-(3-methylmorpholino)-5H-pyrrolo[3,4-d]pyrimidine-6(7H)-carboxylate], for which the IC50 on mTOR (setting [2]) is below 100 nM; in assay [1], 83 nM.
Turning to `CCNC(=O)Nc1ccc(-c2nc3c(c(N4CCOC[C@@H]4C)n2)CCN(C(=O)OC)C3)cc1` [Example 81, (S)-methyl 2-(4-(3-ethylureido)phenyl)-4-(3-methylmorpholino)-5,6-dihydropyrido[3,4-d]pyrimidine-7(8H)-carboxylate], the half-inhibitory concentration (IC50) was below 100 nM at mTOR (setting [2]) and 47 nM in assay [1].
In the same order, the values of `CCNC(=O)Nc1ccc(-c2nc3c(c(N4CCOC[C@@H]4C)n2)CN(C(=O)OCC)C3)cc1F` [Example 103, (S)-ethyl-2-(4-(3-ethylureido)-3-fluorophenyl)-4-(3-methylmorpholino)-5H-pyrrolo[3,4-d]pyrimidine-6(7H)-carboxylate] are 100 to 1000 nM and 207 nM.
In the same order, the values of `CCNC(=O)Nc1ccc(-c2nc3c(c(N4CCOC[C@@H]4C)n2)CN(C(=O)OC)C3)cc1` [Example 89, (S)-methyl 2-(4-(3-ethylureido)phenyl)-4-(3-methylmorpholino)-5H-pyrrolo[3,4-d]pyrimidine-6(7H)-carboxylate] are below 100 nM and 82 nM.
In the same order, the values of `CCOC(=O)N1Cc2nc(-c3ccc(NC(=O)NCCO)c(F)c3)nc(N3CCOC[C@@H]3C)c2C1` [Example 104, (S)-ethyl-2-(3-fluoro-4-(3-(2-hydroxyethyl)ureido)phenyl)-4-(3-methylmorpholino)-5H-pyrrolo[3,4-d]pyrimidine-6(7H)-carboxylate] are 100 to 1000 nM and 390 nM.
On to `CCNC(=O)Nc1ccc(-c2nc3c(c(N4CCOC[C@@H]4C)n2)CN(C(=O)OCC)C3)c(F)c1` [Example 113, (S)-ethyl-2-(4-(3-ethylureido)-2-fluorophenyl)-4-(3-methylmorpholino)-5H-pyrrolo[3,4-d]pyrimidine-6(7H)-carboxylate], for which the results for the IC50 (on mTOR (setting [2]); in assay [1]) were 100 to 1000 nM and 77 nM, respectively.
In the case of `CC(=O)N1CCc2c(nc(-c3ccc(NC(=O)NC4CC4)cc3)nc2N2CCOC[C@@H]2C)C1` [Example 62, (S)-1-(4-(7-acetyl-4-(3-methylmorpholino)-5,6,7,8-tetrahydropyrido[3,4-d]pyrimidin-2-yl)phenyl)-3-cyclopropylurea], the half-maximal inhibitory concentration (IC50) on mTOR (setting [3]) is below 100 nM; on mTOR (setting [2]), below 100 nM; in assay [1] it was 49 nM.
As for `CCNC(=O)Nc1ccc(-c2nc3c(c(N4CCOC[C@@H]4C)n2)CN(C(=O)OC(C)(C)C)C3)cc1` [Example 1, (S)-tert-butyl 2-(4-(3-ethylureido)phenyl)-4-(3-methylmorpholino)-5H-pyrrolo[3,4-d]pyrimidine-6(7H)-carboxylate], the IC50 on mTOR (setting [3]) was 100 to 1000 nM; on mTOR (setting [2]), 100 to 1000 nM; in assay [1], 52 nM.
Consider `CCNC(=O)Nc1ccc(-c2nc3c(c(N4CCOCC4)n2)CCN(C(=O)C(C)(C)C)C3)cc1` [Example 98, 1-ethyl-3-(4-(4-morpholino-7-pivaloyl-5,6,7,8-tetrahydropyrido[3,4-d]pyrimidin-2-yl)phenyl)urea], for which the IC50 on mTOR (setting [2]) was below 100 nM; in assay [1], 45 nM.
